Measurements from US12076304B2, “Compositions comprising 15-HEPE and methods of treating or preventing hematologic disorders, and/or related diseases” (priority 2020, dated 2024).
Marks after values point to notes of the source that are not given here.

Columns and labels:
[1] = system: rats; settings: oral once daily, 26 weeks, highest dose tested 1 mg/kg/day; cited from earlier work
[2] = system: Sprague Dawley rats; assay: 26 week oral gavage toxicity study in rats: haematology; type: in vivo; settings: 26 weeks; for Red blood cell count (RBC), Mean / Red Cell Distribution Width (RDW), Mean / Reticulocyte count (RETIC), Mean: male rats; for Red blood cell count (RBC), Mean: vehicle 8.38; for Red Cell Distribution Width (RDW), Mean: vehicle 14.98; for Reticulocyte count (RETIC), Mean: vehicle 219.51
Description: (§1) The test and control items were administered to the appropriate animals by once daily oral gavage 7 days a week for a minimum of 26 weeks. The volume for each animal was based on the most recent body weight measurements. The doses were given using a syringe with attached gavage cannula. The first day of dosing was designated as Day 1. The dosing formulations were removed from the refrigerator and stirred for at least 30 minutes before dosing. The dosing formulations were also stirred continuously during dosing.
(§2) Sample Collection: Blood was collected via the tail vein unless immediately prior to necropsy, when blood was collected from the orbital sinus under non-recoverable isoflurane anesthesia. Blood was collected in ascending animal order unless samples were collected prior to necropsy where the order of euthanasia was followed. Additional blood samples were obtained (e.g. due to clotting of non-serum samples) if permissible sampling frequency and blood volume were not exceeded. After collection, samples were transferred to the appropriate laboratory for processing. Samples were collected according to the following table.
Hematology: A 0.5 mL blood sample was collected using the anticoagulant K2EDTA. Blood smears were labelled, stained, and stored. The blood smears were analyzed according to the following parameters.
(§3) Animals: The study used male and female Sprague Dawley rats purchased from Charles River UK Limited (Margate, Kent, UK). The target age at the initial dosing was 7-8 weeks. The target weight at the initial dosing was 175-300 g (males) and 120-250 g (females). Each animal was identified using a subcutaneously implanted electronic cylindrical, “glass-sealed” TROVAN microchip.

[3] = system: Sprague Dawley rats; assay: 26 week oral gavage toxicity study in rats: tolerability, clinical signs; type: in vivo; settings: 6 g/kg/day oral gavage, replaced with 3 g/kg/day
Description: as §1
Due to the onset of clinical signs, including hunched posture, erect fur and abnormal gait and body weight loss, animals 3206M, 3515F and 3703F were given a dosing holiday from Day 45 and remaining Group 3 animals were given a dosing holiday from Day 48. Animals will start dosing at the lower dose level (3000 mg/kg/day) from Day 64. The following tables illustrate the treatments (Table 23) and animal groupings (Table 24) that were used in the study.
Mortality/moribundity checks were made daily. […] Animals were not removed from the cage during observation, unless necessary for identification or confirmation of possible findings.
Post-dose observations were made regularly throughout the day. […] The onset, intensity, and duration of these signs were recorded; particular attention was paid to the animals during and for the first hour after dosing. […]

[4] = 0.5% HPMC dosing formulations; same preparation and storage conditions (4° C.); concentrations bracketing those used; cited from earlier work
[5] = system: Sprague Dawley rats; assay: 26 week oral gavage toxicity study in rats: coagulation; type: in vivo; settings: 26 weeks; for Fibrinogen (FIB), Mean / Prothrombin Time (PT), Mean / Activated Partial Thromboplastic Time (APTT), Mean: male rats; for Fibrinogen (FIB), Mean: vehicle 2.61; for Prothrombin Time (PT), Mean: vehicle 10.25; for Activated Partial Thromboplastic Time (APTT), Mean: vehicle 12.92; for APTT compared to control / FIB concentration compared to control / PT compared to control: rats
Description: as §1, §2
Coagulation: A 0.5 mL blood sample was collected using the anticoagulant 3.8% (w/v) trisodium citrate for processing to plasma. To assess coagulation the following coagulation parameters were measured.
as §3

[6] = system: TGF-β-stimulated intracellular signaling (SMAD2/3 phosphorylation); assay: TGF-β-stimulated SMAD2/3 phosphorylation in LX2 liver stellate cells; type: cell-based, human; settings: 0 μM to 100 μM for 24 hours, then 30 min TGF-β
[7] = system: TGF-β induced epithelial mesenchymal transition (EMT) protein production; assay: TGF-β induced EMT protein production in HepG2 cells; type: cell-based, human; settings: increasing doses for 1 hour, then 200 pM TGF-β for 48 hours
Description: (§4) The effects of 15-HEPE on TGF-β-induced signaling and cellular responses were determined. To test the effect of 15-HEPE on TGF-β-induced signaling, the activities of 15-HEPE to regulate TGF-β-stimulated Smad2 phosphorylation and nuclear translocation, both of which are key signaling events leading to TGF-β-induced cellular responses, were tested. One important biological activity of TGF-β is transcriptional activation of genes responsible for epithelial-mesenchymal transition (EMT), which is a crucial event in wound healing, tissue fibrosis, and cancer progression. The effect of 15-HEPE on TGFβ-induced epithelial mesenchymal transition related proteins (such as fibronectin, PAI-1, and N-cadherin etc.) expression in HepG2 and LXR cells were assessed. HepG2 cells (human hepatoma cell line) were treated in increasing doses of 15-HEPE stage II in DMEM containing 0.1% of FBS for 1 hour and continually stimulated with or without 200 picomolar (pM) of TGF-β for 48 hours.
(§5) HepG2 cells (human hepatoma cell line) were treated in increasing doses of 15-HEPE stage II in DMEM containing 0.1% of FBS for 1 hour and continually stimulated with or without 200 picomolar (pM) of TGF-β for 48 hours. The two panels shown in FIG. 18A are two separate experiments run under the same experimental conditions.

[8] = system: TβR-II (type II TGF-β receptor); assay: Sucrose density gradient analysis in Mv1Lu cells, TβR-II; type: cell-based, mink; settings: for translocation and degradation of type II TGF-β receptors: summary of Example 3, free acid or ethyl ester form
Description: (§6) Sucrose gradient ultracentrifugation and confocal microscopy were used to identify 15-HEPE induced microdomain translocation of TGF-β receptors […]. Sucrose density gradient analysis of TGF-β receptors was conducted in the plasma membranes of Mv1Lu cells (mink lung epithelial cell) treated with 100 μM of 15-HEPE and an equal volume of DMSO (dimethyl sulfoxide) at 37° C. for 0, 1, 4, and 24 hours, and the cell lysates from these treated cells were subjected to sucrose density gradient ultracentrifugation. The sucrose gradient fractions were then analyzed by Western blot analysis using anti-Tβ(type I TGF-β receptor), anti-TβR-II (type II TGF-β receptor), anti-TβR-III (type III TGF-β receptor, betaglycan), anti-EGFR (epidermal growth factor receptor), and anti-caveolin-1 antibodies. The lipid raft/caveolae, and non-lipid raft microdomain localization of TβR-I, TβR-II, TβR-III, EGFR and caveolin-1 in the plasma membrane of untreated cells or cells treated with 15-HEPE were assessed to determine the effects of 15-HEPE on the membrane microdomain localization of the TGF-β receptors.
A 15-HEPE sucrose density gradient analysis of TGF-β receptors was conducted in the plasma membranes of mink lung epithelial cell (Mv1 Lu) cells treated with 100 μM of 15-HEPE and an equal volume of dimethyl sulfoxide (DMSO) at 37° C. for 0, 1, 4, and 24 hours, and the cell lysates from these treated cells were subjected to sucrose density gradient ultracentrifugation. The sucrose gradient fractions were then analyzed by Western blot analysis using anti-TβR-I (type I TGF-β receptor—FIG. 18C), anti-TβR-II (type II TGF-β receptor-FIG. 18D), anti-TβR-III (type III TGF-β receptor, betaglycan-FIG. 18E), anti-EGFR (epidermal growth factor receptor-FIG. 18F), and anti-caveolin-1 antibodies (FIG. 18G). Fractions 4 to 5 contained lipid rafts/caveolae whereas fractions 7-10 were non-lipid raft fractions. […] Stars(*) indicate 15-HEPE increased abundance of TβR-I (24 hours) in the fraction in comparison with that of the control and shorter treatment durations (FIG. 18C). […] The triangles (▾) indicate translocation and decreased abundance of TβR-II in the fraction in comparison with control cells (FIG. 18D).

[9] = system: caveolin-1; assay: Sucrose density gradient analysis in Mv1Lu cells, caveolin-1; type: cell-based, mink; settings: 100 μM, 0-24 hours
Description: as §6, with “receptors. […]” for “receptors.”

[10] = system: TβR-I (type I TGF-β receptor); assay: Sucrose density gradient analysis in Mv1Lu cells, TβR-I; type: cell-based, mink; settings: 100 μM
Description: as §6, with “receptors. […]” for “receptors.”

[11] = molecular target: T1, type II TGF-β receptor (Homo sapiens, UniProt P37173); assay: Type II TGF-β receptor degradation in HepG2 cells; type: cell-based; settings: increasing doses for 1 hour, then 200 pM TGF-β for 48 hours
T1 construct: endogenous in cells; host or cells: HepG2
T1 sequence (P37173 23-567): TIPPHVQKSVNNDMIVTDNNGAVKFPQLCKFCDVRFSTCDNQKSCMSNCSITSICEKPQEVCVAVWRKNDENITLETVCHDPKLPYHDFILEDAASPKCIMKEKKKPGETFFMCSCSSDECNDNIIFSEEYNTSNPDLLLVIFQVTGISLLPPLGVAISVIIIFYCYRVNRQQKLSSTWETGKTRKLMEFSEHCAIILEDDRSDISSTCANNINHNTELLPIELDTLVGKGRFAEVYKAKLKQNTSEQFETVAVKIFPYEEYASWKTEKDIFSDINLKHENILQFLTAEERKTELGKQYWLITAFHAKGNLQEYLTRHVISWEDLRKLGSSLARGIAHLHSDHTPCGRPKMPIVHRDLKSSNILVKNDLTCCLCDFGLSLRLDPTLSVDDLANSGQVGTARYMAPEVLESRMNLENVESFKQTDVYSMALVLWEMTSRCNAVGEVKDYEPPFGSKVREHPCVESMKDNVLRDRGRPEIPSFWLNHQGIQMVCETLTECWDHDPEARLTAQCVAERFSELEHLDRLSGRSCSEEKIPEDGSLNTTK
Description: as §4, §5

[12] = system: EGFR (epidermal growth factor receptor); assay: Sucrose density gradient analysis in Mv1Lu cells, EGFR; type: cell-based, mink; settings: 100 μM, 0-24 hours
Description: as §6, with “receptors. […]” for “receptors.”

[13] = system: TβR-III (type III TGF-β receptor, betaglycan); assay: Sucrose density gradient analysis in Mv1Lu cells, TβR-III; type: cell-based, mink; settings: 100 μM, 0-24 hours
Description: as §6, with “receptors. […]” for “receptors.”

[14] = 6000/3000 mg/kg/day oral gavage

For `CC/C=C\C[C@H](O)/C=C/C=C\C/C=C\C/C=C\CCCC(=O)OCC` [15(S)-HEPE EE], the “adverse effects at the highest dose tested” value [1] is given as “no adverse effects”, the “Red blood cell count (RBC), Mean” value ([2]; 2000 mg/kg/day oral gavage) is given as 8.67 10^∧12/L and the “Red Cell Distribution Width (RDW), Mean” value ([2]; 2000 mg/kg/day oral gavage) is given as 13.91** %. For the same compound, the “Reticulocyte count (RETIC), Mean” value ([2]; 2000 mg/kg/day oral gavage) was 154.60* 10^∧9/L, the “Red blood cell count (RBC), Mean” value [2, 14] was 8.81** 10^∧12/L and the “Red Cell Distribution Width (RDW), Mean” value [2, 14] was 13.60** %. For the same compound, the “Reticulocyte count (RETIC), Mean” value [2, 14] was 141.46** 10^∧9/L, the “RDW compared to control” value ([2]; rats, 2 g/kg/day dose) was “significant decrease” and the “RETIC compared to control” value ([2]; rats, 2 g/kg/day dose) was “significant decrease”. The “RBC compared to control” value ([2]; rats, 3 g/kg/day dose) was “significant increase”, the “RDW compared to control” value ([2]; rats, 3 g/kg/day dose) was “significant decrease” and the “RETIC compared to control” value ([2]; rats, 3 g/kg/day dose) was “significant decrease”. For the same compound, the “tolerability of the highest dose” value [3] was “not well tolerated”, the “stability of the test item in the vehicle” value [4] was “stable” and the “Fibrinogen (FIB), Mean” value ([5]; 2000 mg/kg/day oral gavage) was 2.35** g/L. For the same compound, the “Prothrombin Time (PT), Mean” value ([5]; 2000 mg/kg/day oral gavage) was 10.69** sec, the “Activated Partial Thromboplastic Time (APTT), Mean” value ([5]; 2000 mg/kg/day oral gavage) was 15.03* sec and the “Fibrinogen (FIB), Mean” value [5, 14] was 2.26** g/L. For the same compound, the “Prothrombin Time (PT), Mean” value [5, 14] was 10.81** sec, the “Activated Partial Thromboplastic Time (APTT), Mean” value [5, 14] was 15.73** sec and the “APTT compared to control” value ([5]; 2 g/kg/day dose) was “significant increase”. For the same compound, the “FIB concentration compared to control” value ([5]; 2 g/kg/day dose) was “significant decrease”, the “PT compared to control” value ([5]; 2 g/kg/day dose) was “significant increase” and the “APTT compared to control” value ([5]; 3 g/kg/day dose) was “significant increase”. For the same compound, the “FIB concentration compared to control” value ([5]; 3 g/kg/day dose) was “significant decrease” and the “PT compared to control” value ([5]; 3 g/kg/day dose) was “significant increase”.

For `CC/C=C\C[C@H](O)/C=C/C=C\C/C=C\C/C=C\CCCC(=O)OCC` [15-HEPE EE, 15-HEPE ethyl ester], the “TGF-β-stimulated intracellular signaling (SMAD2/3 phosphorylation)” value [6] was “inhibited”, the “TGF-β induced EMT (pro-fibrotic) protein production” value [7] was “blocked” and the “translocation and degradation of type II TGF-β receptors” value [8] was “induced translocation and degradation”.

In the case of `CC/C=C\CC(O)/C=C/C=C\C/C=C\C/C=C\CCCC(=O)O` (stereo not shown) [15-HEPE, 15-hydroxy-eicosa-5Z,8Z,11Z,13E,17Z-pentaenoic acid], the “localization and abundance of caveolin-1” value [9] is reported as “did not change”, the “abundance of TβR-I proteins” value ([10]; 37° C., 0, 1, 4, 24 hours) is reported as “did not affect” and the “translocation of TβR-I to lipid-raft” value ([10]; 24 hours treatment) is reported as “induced translocation”. The “degradation of type II TGF-β receptor” value [11] was “induced degradation”, the “TGF-β-stimulated intracellular signaling (SMAD2/3 phosphorylation)” value [6] was “inhibited” and the “TGF-β induced EMT (pro-fibrotic) protein production” value [7] was “blocked”. For the same compound, the “localization and abundance of EGFR” value [12] was “did not change”, the “localization and abundance of TβR-III” value [13] was “did not change” and the TβR-II degradation ([8]; Mv1Lu cells, 100 μM, 24 hours treatment) was “induce degradation”. The TβR-II translocation ([8]; Mv1Lu cells, 100 μM, from 1 to 4 hours) was “induced TβR-II translocation” and the “translocation and degradation of type II TGF-β receptors” value [8] was “induced translocation and degradation”.
